PubChem BioAssay AID1963970 (Molecular Pharmacology Branch, DTP, NCI, 2024)

System: 931267-113-T-J1-PDC multicell spheroid viability
Test: Anticancer human tumor 931267-113-T-J1-PDC patient-derived colon adenocarcinoma cell line growth inhibition [PI3K]
Conditions: for IC50: curve of first compound; for viability, T/C: stronger effect = lower value
In short: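 Viability of mixed-cell spheroids was determined after exposure to pairwise combinations, one partner being inavolisib, alpelisib, duvelisib or copanlisib. Highest tested concentration matched clinical Cmax where known and 10 microM where not, descending in half-log steps.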

[1] = second compound 0.0316 µM, first compound 0.0316 µM
[2] = second compound 0.0316 µM, first compound 0.1 µM
[3] = second compound 0.0316 µM, first compound 0.316 µM
[4] = second compound 0.0316 µM, first compound 1 µM
[5] = second compound 0.0316 µM, first compound 3.16 µM
[6] = second compound 0.0316 µM, first compound 10 µM
[7] = second compound 0.1 µM, first compound 0.0316 µM
[8] = second compound 0.1 µM, first compound 0.1 µM
[9] = second compound 0.1 µM, first compound 0.316 µM
[10] = second compound 0.1 µM, first compound 1 µM
[11] = second compound 0.1 µM, first compound 3.16 µM
[12] = second compound 0.1 µM, first compound 10 µM
[13] = second compound 0.316 µM, first compound 0.0316 µM
[14] = second compound 0.316 µM, first compound 0.1 µM
[15] = second compound 0.316 µM, first compound 0.316 µM
[16] = second compound 0.316 µM, first compound 1 µM
[17] = second compound 0.316 µM, first compound 3.16 µM
[18] = second compound 0.316 µM, first compound 10 µM
[19] = second compound 1 µM, first compound 0.0316 µM
[20] = second compound 1 µM, first compound 0.1 µM
[21] = second compound 1 µM, first compound 0.316 µM
[22] = second compound 1 µM, first compound 1 µM
[23] = second compound 1 µM, first compound 3.16 µM
[24] = second compound 1 µM, first compound 10 µM
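Further: viability read 7 days after compound addition.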

In the case of Cn1ncc(Cl)c1-c1cc(C(=O)NC(CN)Cc2cccc(F)c2)sc1Cl (centres undefined) + CC(Nc1ncnc2nc[nH]c12)c1cc2cccc(Cl)c2c(=O)n1-c1ccccc1, the IC50 (second compound 0.0316 µM) is reported as 6.98 µM, the IC50 (second compound 0.1 µM) is reported as 8.83 µM and the IC50 (second compound 0.316 µM) is reported as 6.77 µM. The IC50 (second compound 1 µM) was 8.02 µM, the IC50 (second compound 3.16 µM) was 6.2 µM and the IC50 (second compound 10 µM) was 6 µM. The viability, T/C [1] was 100%, the viability, T/C [2] was 105% and the viability, T/C [3] was 101%. It also gave a viability, T/C [4] of 86%, a viability, T/C [5] of 85.7% and a viability, T/C [6] of 35.1%. The viability, T/C [7] was 106%, the viability, T/C [8] was 119% and the viability, T/C [9] was 96%. The viability, T/C [10] was 91.4%, the viability, T/C [11] was 86.8% and the viability, T/C [12] was 44.5%. The viability, T/C [13] was 114%, the viability, T/C [14] was 109% and the viability, T/C [15] was 99.3%. For the same compound, the viability, T/C [16] was 94.5%, the viability, T/C [17] was 79% and the viability, T/C [18] was 35.7%. For the same compound, the viability, T/C [19] was 107%, the viability, T/C [20] was 110% and the viability, T/C [21] was 92.5%. For the same compound, the viability, T/C [22] was 91.2%, the viability, T/C [23] was 80.6% and the viability, T/C [24] was 42.4%. The viability, T/C (second compound 3.16 µM, first compound 0.0316 µM) was 99.7%, the viability, T/C (second compound 3.16 µM, first compound 0.1 µM) was 97.3% and the viability, T/C (second compound 3.16 µM, first compound 0.316 µM) was 97.8%. For the same compound, the viability, T/C (second compound 3.16 µM, first compound 1 µM) was 86.9%, the viability, T/C (second compound 3.16 µM, first compound 3.16 µM) was 74.5% and the viability, T/C (second compound 3.16 µM, first compound 10 µM) was 33.4%. It also gave a viability, T/C (second compound 10 µM, first compound 0.0316 µM) of 92.9%, a viability, T/C (second compound 10 µM, first compound 0.1 µM) of 89.3% and a viability, T/C (second compound 10 µM, first compound 0.316 µM) of 90.2%. It also gave a viability, T/C (second compound 10 µM, first compound 1 µM) of 87.3%, a viability, T/C (second compound 10 µM, first compound 3.16 µM) of 67.3% and a viability, T/C (second compound 10 µM, first compound 10 µM) of 36.1%.

In the case of C[C@@H](NC(=O)c1ncnc(N)c1Cl)c1ncc(C(=O)Nc2cc(C(F)(F)F)c(Cl)cn2)s1 + CC(Nc1ccc2c(c1)OCCn1cc(N3C(=O)OCC3C(F)F)nc1-2)C(N)=O, the IC50 (second compound 0.00316 µM) is reported as > 10 µM, the IC50 (second compound 0.01 µM) is reported as > 10 µM and the IC50 (second compound 0.0316 µM) is reported as > 10 µM. For the same compound, the IC50 (second compound 0.1 µM) was 8.97 µM, the IC50 (second compound 0.316 µM) was 7.88 µM and the IC50 (second compound 1 µM) was 4.87 µM. It also gave a viability, T/C (second compound 0.00316 µM, first compound 0.0316 µM) of 114%, a viability, T/C (second compound 0.00316 µM, first compound 0.1 µM) of 129% and a viability, T/C (second compound 0.00316 µM, first compound 0.316 µM) of 110%. It also gave a viability, T/C (second compound 0.00316 µM, first compound 1 µM) of 121%, a viability, T/C (second compound 0.00316 µM, first compound 3.16 µM) of 90.8% and a viability, T/C (second compound 0.00316 µM, first compound 10 µM) of 75.3%. For the same compound, the viability, T/C (second compound 0.01 µM, first compound 0.0316 µM) was 116%, the viability, T/C (second compound 0.01 µM, first compound 0.1 µM) was 108% and the viability, T/C (second compound 0.01 µM, first compound 0.316 µM) was 111%. The viability, T/C (second compound 0.01 µM, first compound 1 µM) was 118%, the viability, T/C (second compound 0.01 µM, first compound 3.16 µM) was 101% and the viability, T/C (second compound 0.01 µM, first compound 10 µM) was 66.7%. For the same compound, the viability, T/C [1] was 99.7%, the viability, T/C [2] was 124% and the viability, T/C [3] was 119%. For the same compound, the viability, T/C [4] was 110%, the viability, T/C [5] was 97.9% and the viability, T/C [6] was 63.6%. It also gave a viability, T/C [7] of 116%, a viability, T/C [8] of 93.3% and a viability, T/C [9] of 101%. The viability, T/C [10] was 95.9%, the viability, T/C [11] was 78% and the viability, T/C [12] was 46.4%. The viability, T/C [13] was 94%, the viability, T/C [14] was 97.5% and the viability, T/C [15] was 96.4%. For the same compound, the viability, T/C [16] was 87%, the viability, T/C [17] was 75.2% and the viability, T/C [18] was 43.5%. For the same compound, the viability, T/C [19] was 83%, the viability, T/C [20] was 88.8% and the viability, T/C [21] was 80.7%. It also gave a viability, T/C [22] of 77.2%, a viability, T/C [23] of 62.3% and a viability, T/C [24] of 29.7%.
